Measurements reported in patent US5665555A, “Method of determining the effect of a test substance on a clone of a Centroptilum triangulifer mayfly” (priority 1993, dated 1997).
Entries after “also recorded” stand apart in the source; their conditions may differ.

Test system: adult C. triangulifer
Assay: Chlordane residue (body burden), relative composition and metabolism in adult C. triangulifer by ECNI-MS
Format: in vivo, Centroptilum triangulifer (WCC 2 clone)
Details: for metabolism by C. triangulifer: 4.3 μg/l technical chlordane; for amount of cis- and trans-chlordane relative to the nonachlors in C. triangulifer: compared to original distribution in technical chlordane; for relative composition of principal chlordane components or metabolites in mayflies: reared at 4.3 μg/l chlordane; for bioaccumulation in C. triangulifer: in vivo
Experimental: Surviving C. triangulifer individuals from the various controls and treatment groups were collected daily as subimagos (pre-adults) from emergence cages. Most subimagos emerging from a given vessel were immediately killed, measured, dried, and weighed. The viability of eggs obtained from females that had been chronically exposed as larvae to the various control and treatment conditions was also assessed. Thus, a few subimagos from certain treatments were kept alive for 24 h (n=8, 5, 8, 6, 10, and 6 for the 4.3, 9.4, 15.4, 27.4, and 56.3 μg/l and control groups, respectively), during which time they molted to the adult stage and were allowed to oviposit into individual glass jars for assessing hatch success as described above. A few adults from the 4.3 μg/l group were frozen intact at […] for later analysis for chlordane residue by electron capture negative ionization mass spectrometry (ECNI-MS). Chiordane residue in adults reared as larvae in 0.005, 0.05, and 0.5 μg/l treatments was also determined.
Chlordane was extracted from water samples by liquid-liquid extraction in a separatory funnel with three aliquots of hexane. PCB204 (2,2',3,4,4',5,6,6'-octachlorobiphenyl) was added as a surrogate standard before extraction. Each hexane aliquot was rinsed into the plastic sample bottle after transfer of the water sample and before its addition to the separatory funnel containing the water sample to ensure removal of chlordane adsorbed on the walls. The three hexane aliquots were combined and evaporated with a rotary evaporator and then further evaporated down to 100 μl under nitrogen for the final step. Chlordane components and metabolites were quantified from the relative responses of the surrogate standard and the authentic standards of heptachlor; trans- and cis-chlordane; trans- and cis-nonachlor; and the two metabolites, heptachlor epoxide and oxychlordane (n.b. cis-nonachlor was estimated from the response factor for trans-nonachlor). Adult body burdens and water concentrations of chlordane residue were calculated by comparison of the component areas with that of the surrogate standard to correct for losses during extraction and purification.
Adult mayflies from a given replicate vessel per treatment were dried and combined in lots of five to thirteen organisms for extraction and analysis. The mayflies were ground in 0.5 ml methanol after addition of the surrogate standard PCB204 and extracted by sonication with two 10 ml aliquots of a 1:1 methanol:methylene chloride mixture. Extracts were filtered through pasteur pipettes loaded with approximately 1.0 g of Na2 SO4 and clean glass wool. Chlordane components and the surrogate standard were separated from other components in the extract on 1% deactivated silica (0.8 g) microcolumns (organochlorines were eluted with 20% methylene chloride in hexane).
Five principal chlordane components and two metabolites (heptachlor, cis- and trans-chlordane, cis- and trans-nonachlor, heptachlor epoxide, and oxychlordane) were identified and quantified by ECNI-MS, using a Hewlett Packard 5988/RTE-A mass spectrometer equipped with a Hewlett Packard 5890 GC. Instrumental conditions were: GC -0.25 mm, 30 m DB-5 column (J & W Scientific) held at 60° C. for 2 min, then ramped to 180° C. at 20°/min, to 230° C. at 2°/min, to 280° C. at 10°/min, and then held at 280° C. for 10 min; MS-CH4 pressure 0.45 torr, source temperature 100° C.

ClC1=C(Cl)[C@]2(Cl)[C@@H]3C[C@@H](Cl)[C@@H](Cl)[C@@H]3[C@@]1(Cl)C2(Cl)Cl (relative stereo) [cis-chlordane]
metabolism by C. triangulifer: metabolized in part to oxychlordane; also recorded: capable of metabolizing or excreting both isomers equally
amount of cis- and trans-chlordane relative to the nonachlors in C. triangulifer: Reduced quantities
relative composition of principal chlordane components or metabolites in mayflies: 4±3%

ClC1=C(Cl)[C@]2(Cl)[C@@H]3C[C@H](Cl)[C@@H](Cl)[C@@H]3[C@@]1(Cl)C2(Cl)Cl (relative stereo) [trans-chlordane]
metabolism by C. triangulifer: metabolized in part to oxychlordane; also recorded: capable of metabolizing or excreting both isomers equally
amount of cis- and trans-chlordane relative to the nonachlors in C. triangulifer: Reduced quantities
relative composition of principal chlordane components or metabolites in mayflies: 5±3%

ClC1=C(Cl)[C@]2(Cl)[C@@H]3[C@@H](Cl)[C@@H](Cl)[C@@H](Cl)[C@@H]3[C@@]1(Cl)C2(Cl)Cl [cis-nonachlor]
metabolism by C. triangulifer: poorly metabolized
bioaccumulation in C. triangulifer: clear trend for the C. triangulifer mayfly to bioaccumulate
relative composition of principal chlordane components or metabolites in mayflies: 6±2%

ClC1=C(Cl)C2(Cl)C3C4OC4C(Cl)C3C1(Cl)C2(Cl)Cl (stereo not drawn) [heptachlor epoxide]
bioaccumulation in C. triangulifer: clear trend for the C. triangulifer mayfly to bioaccumulate
relative composition of principal chlordane components or metabolites in mayflies: 18±7%

ClC1=C(Cl)C2(Cl)C3C(Cl)C=CC3C1(Cl)C2(Cl)Cl (stereo not drawn) [heptachlor]
metabolism by C. triangulifer: completely metabolize

ClC1=C(Cl)[C@]2(Cl)[C@H]3[C@H]([C@@H](Cl)[C@]4(Cl)O[C@H]34)[C@@]1(Cl)C2(Cl)Cl [oxychlordane]
bioaccumulation in C. triangulifer: clear trend for the C. triangulifer mayfly to bioaccumulate
relative composition of principal chlordane components or metabolites in mayflies: 21±13%

ClC1=C(Cl)[C@]2(Cl)[C@@H]3[C@@H](Cl)[C@H](Cl)[C@@H](Cl)[C@@H]3[C@@]1(Cl)C2(Cl)Cl [trans-nonachlor]
metabolism by C. triangulifer: poorly metabolized
bioaccumulation in C. triangulifer: clear trend for the C. triangulifer mayfly to bioaccumulate
ratio of trans-nonachlor to cis-nonachlor in C. triangulifer (range): 6.2-8.6
relative composition of principal chlordane components or metabolites in mayflies: 45±11%
